In the NIST ThermoML archive (doi:10.1021/je0604378):

Conditions: Liquid; for speed of sound: Pulse-echo method; for mass density: 101.33 kPa

CCCCCCCCCO [nonan-1-ol]
Conditions	speed of sound [m/s]
292.86 K, 45590 kPa	1579.5
292.86 K, 91180 kPa	1731.8
292.86 K, 101320 kPa	1762
292.87 K, 15200 kPa	1456.7
292.87 K, 30390 kPa	1520.8
292.87 K, 60790 kPa	1634
292.87 K, 75990 kPa	1684.4
292.88 K, 100 kPa	1382.8
297.95 K, 60790 kPa	1620
297.95 K, 91180 kPa	1718.7
297.95 K, 101320 kPa	1749.2
297.96 K, 15200 kPa	1440.2
297.96 K, 30390 kPa	1505.4
297.96 K, 45590 kPa	1564.5
297.96 K, 75990 kPa	1670.7
298.18 K, 100 kPa	1364.6
302.93 K, 45590 kPa	1550.1
302.93 K, 60790 kPa	1606
302.93 K, 75990 kPa	1657.6
302.93 K, 91180 kPa	1705.8
302.93 K, 101320 kPa	1736.7
302.94 K, 15200 kPa	1424.3
302.94 K, 30390 kPa	1490.2
303.16 K, 100 kPa	1347.5
307.91 K, 30390 kPa	1475.5
307.91 K, 45590 kPa	1536
307.91 K, 60790 kPa	1592.4
307.92 K, 15200 kPa	1408.5
307.92 K, 75990 kPa	1644.7
307.92 K, 91180 kPa	1693.2
307.92 K, 101320 kPa	1724.3
308.14 K, 100 kPa	1330.6
312.91 K, 15200 kPa	1392.8
312.91 K, 30390 kPa	1460.8
312.91 K, 45590 kPa	1522.2
312.91 K, 60790 kPa	1578.9
312.91 K, 75990 kPa	1632
312.91 K, 91180 kPa	1681.1
312.91 K, 101320 kPa	1712.3
313.11 K, 100 kPa	1313.8
318.29 K, 100 kPa	1296.3
318.38 K, 45590 kPa	1507.3
318.38 K, 60790 kPa	1564.6
318.38 K, 75990 kPa	1618.3
318.38 K, 91180 kPa	1667.8
318.38 K, 101320 kPa	1699.1
318.39 K, 15200 kPa	1375.9
318.39 K, 30390 kPa	1444.8
318.39 K, 45590 kPa	1507.3
318.39 K, 91180 kPa	1667.8

Conditions	mass density [kg/m3]
293.15 K	827.66
298.15 K	824.239
303.16 K	820.8
308.15 K	817.345
313.15 K	813.868
318.15 K	810.376
